Data on six compounds can be found in patent publication US6821959B1, “Antibiotic-natural polysaccharide polymer adducts” (Istituto Biochimico Pavese Pharma S.p.A, priority 1999, dated 2004).

In brackets after ≈: the same amount, converted by molar mass.

Data set [1] relates to S. aureus Smith BT13. Nature of the data set: Murine model of Staphylococcus aureus subcutaneous abscess. The format is in vivo, swiss mice. To be noted: for Size scored: abscess size scored 0 to 3 per mouse, group sum; for Total abscesses in 30 mice / Total score (size scored) in 30 mice: cephalosporin, sum of 25, 50, 100 mg/kg groups; for Cured infected mice of 30: parent cephalosporin, 25, 50, 100 mg/kg groups together. On the procedure: 200 Male swiss mice were housed in temperature and humidity controlled animal rooms. The body weight on the day of infection was 25 g (SD 1.2, no 10). Culture media Brain Heart Infusion Broth (Difco) (BHI) and Brain Heart Infusion Agar (Merck) (BHIA) were prepared according to the manufacturer instructions and autoclaved for 15 mins at 121° C. S. aureus Smith BT13 was used at infecting organism. It was stored frozen at −80° C. […] For each test article, a stock solution was prepared by dissolving the drug with 5 ml of water for injectables (5 mg/ml drug concentration for cephalosporins and 3 mg/ml for the adducts). Dilutions 1:2 and 1:4 were prepared using the same vehicles. All solutions were prepared immediately before use. […] At 6 h after inoculation, groups of 10 mice were dosed intraperitoneally with 0.5 ml either of one of the antibiotic solutions, while an untreated control group of 10 mice was injected intraperitoneally with 0.5 ml sterile water. […] On the third day after infection, all mice were sacrificed and autopsied. Presence and size of abscesses were recorded. […] The activity of all compounds was compared by the non parametric Mann-Whitney U test. Statistical significance was for p<0.05.

For data set [2], the system named is field Staphylococcus aureus (strain B). Nature of the data set: Inhibition halos, diffusion method, strain B. The format is cell-based. An excerpt: (§1) The inhibition halos were obtained through the diffusion method (Farmacopea Ufftclale Italiana, IX ed., page 315), using a culture medium “Mueller-Hinton Medium Difco, with a low thymine and thymidine content, in sterile Petri plates (9 cm in diameter), with Tryptic Soy Broth (Difco).
(§2) For the sensitivity test, both paper filtering disks, imbibed of a fixed quantity of antibiotic and the relevant adduct disks, having the same total dose, but a lower molar ratio of the active principle were prepared.
(§3) To produce a bacterial growth, a strain of Staphylococcus aureus ATCC 6538 P (strain A) and two strains of field Staphylococcus aureus (strains B and C) were used.
(§4) The culture broths were prepared placing a loop of bacterial coating of an agar culture (12 h) in a test tube containing sterile Tryptic Soy Broth (5 ml), successively incubated at 37° C. for 4 hours.
(§5) When necessary, the suspensions have been diluted with sterile water in order to obtain a turbidity similar to the reference standard (0.5 McFarland). The Mueller-Hinton culture medium (150 ml) was sterilized at 121° C. for 15 minutes; a part of it was positioned on sterile Petri plates (9 cm in diameter), was let to solidify, while another part was cooled at approx. 45° C., was inoculated with the bacterial suspensions as above prepared (15 ml) and poured onto the solidified agar surface (10 ml per plate).
(§6) The sown plates were let dry (open) under a laminar flow hood for 15 minutes, then the disks were placed on their surface (four each plate), i.e. the adduct and antibiotic according to the two desired concentrations. The prepared plates (five each tests) were overturned and incubated at 37° C. for 16 hours. After this interval, the inhibition halos were produced. The results are shown in Table 1, where F.U. indicates the dosage recommended by Farmacopea Ufficiale Italiana, IX ed., vol. 1

The test system of data set [3] is field Staphylococcus aureus (strain C). Put plainly: Minimum inhibiting concentration (MIC) in vitro, dilutions in liquid medium, strain C. The format is cell-based. The conditions noted are these: Mueller-Hinton broth pH=7.4, 37° C. 18-24 hours; for MIC: Staphylococcus aureus. The method, then: (§7) To produce a bacterial growth, a strain of Staphylococcus aureus ATCC 6538 P (strain A) and two strains of field Staphylococcus aureus (strains B and C) were used. […] A drop of broth (dilution 1:10) was added to all test tubes, which were incubated at 37° C. for 18-24 hours. Then, the test tube with the highest dilution free of any turbidity was considered as the one containing the minimum inhibiting concentration (MIC).

The subject of data set [4] is Staphylococcus aureus ATCC 6538 P (strain A). Nature of the data set: Minimum inhibiting concentration (MIC) in vitro, dilutions in liquid medium, strain A. The format is cell-based. The conditions noted are these: Mueller-Hinton broth pH=7.4, 37° C. 18-24 hours; for MIC: Staphylococcus aureus, ATCC6538. The method, then: as §7
For data set [5], the system named is field Staphylococcus aureus (strain C). Put plainly: Inhibition halos, diffusion method, strain C. The format is cell-based.
From the text: as §1, §2, §3, §4, §5, §6

The subject of data set [6] is Staphylococcus aureus ATCC 6538 P (strain A). Put plainly: Inhibition halos, diffusion method, strain A. The format is cell-based.
From the text: as §1, §2, §3, §4, §5, §6

Data set [7] relates to field Staphylococcus aureus (strain B). Put plainly: Minimum inhibiting concentration (MIC) in vitro, dilutions in liquid medium, strain B. The format is cell-based. To be noted: Mueller-Hinton broth pH=7.4, 37° C. 18-24 hours; for MIC: Staphylococcus aureus. On the procedure: as §7
Data set [8] relates to Staphylococcus aureus. Nature of the data set: In vivo activity in mice infected with Staphylococcus aureus (ulcerative dermatitis), bacteriologic test. The arrangement: species or system albino mice. The conditions noted are these: for Bacteriologic test after 5 days of therapy, negative / Bacteriologic test after 5 days of therapy, positive: number of subjects; for % of recovery: subjects with post-infective clinical symptoms, after 5 days of therapy. On the procedure: The antibiotics and the respective adducts were used in solution with distilled water for injectables or with purified water for oral use. Common albino mice (average weight: 28 g), previously infected with Staphylococcus aureus (which is not resistant to the examined antibiotics), that had developed ulcerative dermatitis, with localized abscesses and popodermatitis […] were treated with the prepared solutions every 24 hours for 5 days. After this treatment, a bacteriologic checking through isolation was performed, using pads on the animal skin and inoculating the sample drawn from the […] on the plate.

The nature of data set [9]: Solubility in water. The format is physicochemical. To be noted: of water, pH=4.8.
Where [10] appears, read: disk dose 0.64 μg (F.U.) (adduct: same total dose).
Setting [11] is: disk dose 1.56 μg (F.U.) (adduct: same total dose).
[12] abbreviates: subjects with post-infective clinical symptoms (YES), treated every 24 hours for 5 days.
The mark [13] stands for this setting: disk dose 4 μg (adduct: same total dose), 37° C. 16 hours.
Setting [14] is: disk dose 6 μg (adduct: same total dose).
Where [15] appears, read: infected subjects without post-infective clinical symptoms (NO).
Where [16] appears, read: disk dose 8 μg (adduct: same total dose).

A word on the MIC: it is the smallest concentration in the dilution series that meets the test's criterion for growth inhibition. Regarding `Cc1nnc(SCC2=C(C(=O)O)N3C(=O)[C@@H](NC(=O)Cn4cnnn4)[C@H]3SC2)s1` [Cefazolin], the Size scored is given as 17 in [1] (cephalosporin 25 mg/kg/dose), 4 in data set [1] (cephalosporin 50 mg/kg/dose) and 0 in [1] (cephalosporin 100 mg/kg/dose). In addition, the “Total abscesses in 30 mice” value in data set [1] stood at 8 absc. Moreover, in [1], the “Total score (size scored) in 30 mice” value is 21. Further, the “Cured infected mice of 30” value in data set [1] is 22. For the same compound, the “Halos on strain B” value in data set [2] (setting [10]) is listed as 8.5 mm; in [2] (setting [11]), 10.1 mm. Also, the figures for the minimum inhibitory concentration (MIC) in data set [3], in data set [4] and in data set [7] were 0.54 µg/mL (≈ 1.19 µM), 0.5 µg/mL (≈ 1.1 µM) and 0.64 µg/mL (≈ 1.41 µM), respectively. The results for the “Halos on strain C” value in data set [5] (setting [10]) and in data set [5] (setting [11]) were 10.1 mm and 10.9 mm, respectively. The “Halos on strain A” value in data set [6] (setting [10]) was 11.0 mm; in data set [6] (setting [11]), 12.2 mm. Moreover, the “Bacteriologic test after 5 days of therapy, negative” value (from here on “Bacteriologic test … negative”) in data set [8] (setting [12]) was 15. Also, the “Bacteriologic test after 5 days of therapy, positive” value (“Bacteriologic test … positive” below) in [8] (setting [12]) is reported as 0. In addition, the “% of recovery” value in data set [8] came to 100%.
With Gentamicin, the “Halos on strain B” value in data set [2] (setting [13]) was found to be 11.8 mm; in data set [2] (setting [14]) it was 12.0 mm. Besides, in data set [3], the “MIC on strain C” value is 0.139 µg/mL. Moreover, the “MIC on strain A” value in data set [4] came to 0.125 µg/mL. The “Halos on strain C” value in data set [5] (setting [13]) was 12.8 mm; in data set [5] (setting [14]), 13.9 mm. In addition, the entries for the “Halos on strain A” value in [6] (setting [13]) and in data set [6] (setting [14]) were 12.1 mm and 13.1 mm, respectively. Besides, the “MIC on strain B” value in data set [7] was determined as 0.15 µg/mL. Further, the “Bacteriologic test … negative” value in data set [8] (setting [15]) is reported as 0; in data set [8] (setting [12]) it was 13. Further, the “Bacteriologic test … positive” value in data set [8] (setting [15]) and in data set [8] (setting [12]) was 0 throughout. For the same compound, the “% of recovery” value in [8] is given as 100%.
`CO/N=C(\C(=O)N[C@@H]1C(=O)N2C(C(=O)O)=C(COC(C)=O)CS[C@H]12)c1csc(N)n1` [Cefotaxime]: in data set [1] (cephalosporin 25 mg/kg/dose), the Size scored stood at 11. The compound further showed a Size scored in data set [1] (cephalosporin 50 mg/kg/dose) of 3. In [1] (cephalosporin 100 mg/kg/dose), the Size scored amounted to 0. Also, in [1], the “Total abscesses in 30 mice” value is listed as 6 absc, the “Total score (size scored) in 30 mice” value was 14 and the “Cured infected mice of 30” value was 24/30.
In the case of `CC1(C)S[C@@H]2[C@H](NC(=O)[C@H](N)c3ccc(O)cc3)C(=O)N2[C@H]1C(=O)O` [Amoxycillin], the “Halos on strain B” value in [2] (setting [13]) is 13.0 mm; in data set [2] (setting [16]) it was 14.0 mm. The figures for the MIC in data set [3], in data set [4] and in [7] were 0.08 µg/mL (≈ 0.219 µM), 0.1 µg/mL (≈ 0.274 µM) and 0.2 µg/mL (≈ 0.547 µM), respectively. Also, the “Halos on strain C” value in data set [5] (setting [13]) is on record as 9.7 mm; in [5] (setting [16]) it was 10.0 mm. The “Halos on strain A” value is listed as 12.0 mm in [6] (setting [13]) and 13.2 mm in [6] (setting [16]). Further, the figures for the “Bacteriologic test … negative” value in data set [8] (setting [15]) and in data set [8] (setting [12]) were 0 and 13, respectively. Further, the “Bacteriologic test … positive” value in [8] (setting [15]) and in data set [8] (setting [12]) was 0 each time. Besides, the “% of recovery” value in data set [8] turned out to be 100%.
By solubility is commonly meant how much of the substance goes into solution per volume. In the case of `CC1=C(C(=O)O)N2C(=O)[C@@H](NC(=O)[C@H](N)C3=CCC=CC3)[C@H]2SC1` [Cefradin], the entries for the “Halos on strain B” value in [2] (setting [10]) and in data set [2] (setting [11]) were 7.0 mm and 9.0 mm, respectively. For the same compound, the results for the MIC in data set [3], in [4] and in [7] were 4.3 µg/mL (≈ 12.3 µM), 4 µg/mL (≈ 11.4 µM) and 4.8 µg/mL (≈ 13.7 µM), respectively. Also, the “Halos on strain C” value in data set [5] (setting [10]) is on record as 9.7 mm; in data set [5] (setting [11]), 10.0 mm. Further, in data set [9], the solubility is 4000 µg/mL (≈ 11400 µM). For the same compound, the entries for the “Halos on strain A” value in data set [6] (setting [10]) and in data set [6] (setting [11]) were 10.0 mm and 12.1 mm, respectively. In addition, the “Bacteriologic test … negative” value in data set [8] (setting [12]) was found to be 15. Further, in [8] (setting [12]), the “Bacteriologic test … positive” value stood at 0. Further, the “% of recovery” value in data set [8] was found to be 100%.
As for `CO/N=C(\C(=O)N[C@@H]1C(=O)N2C(C(=O)O)=C(CSc3nc(=O)c(=O)[nH]n3C)CS[C@H]12)c1csc(N)n1` [Ceftriaxone], the Size scored in [1] (cephalosporin 25 mg/kg/dose) worked out at 17. Further, the Size scored in data set [1] (cephalosporin 50 mg/kg/dose) is recorded as 14. In addition, the Size scored in data set [1] (cephalosporin 100 mg/kg/dose) turned out to be 10. In addition, in data set [1], the “Total abscesses in 30 mice” value was 19 absc, the “Total score (size scored) in 30 mice” value worked out at 41 and the “Cured infected mice of 30” value is recorded as 11/30.
